{"source": "patent US20120029187A1", "about": "“HALOALKYLSULFONANILIDE DERIVATIVE” (Nissan Chemical Industries, Ltd., priority 2009, published 2012)", "type_in_all_cases": "in vivo", "key": {"[1]": {"tested_on": "barnyardgrass", "experiment": "Test Example 1: herbicidal effects in preemergence treatment under submerged conditions", "settings": "dose 2.52 g/a", "summary_of_the_method": "(§1)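 Weed seeds and 2.5-leaf rice seedlings shared each flooded cup of alluvial soil. Dosing, expressed as g per are, was by pouring water-diluted emulsifiable concentrate onto the surface on sowing day. Mortality was graded 0 to 5 after three weeks' growth.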"}, "[2]": {"tested_on": "bulrush", "experiment": "Test Example 1: herbicidal effects in preemergence treatment under submerged conditions", "settings": "dose 2.52 g/a", "summary_of_the_method": "as §1"}, "[3]": {"tested_on": "ducksalad", "experiment": "Test Example 1: herbicidal effects in preemergence treatment under submerged conditions", "settings": "dose 2.52 g/a", "summary_of_the_method": "as §1"}, "[4]": {"tested_on": "transplanted rice", "experiment": "Test Example 1: preemergence treatment under submerged conditions, effect on crop", "settings": "dose 2.52 g/a", "summary_of_the_method": "as §1"}, "[5]": {"tested_on": "barnyardgrass", "experiment": "Test Example 2: herbicidal effects during the vegetation period under submerged conditions", "settings": "treatment during the vegetation period under submerged conditions; dose 2.52 g/a", "summary_of_the_method": "(§2)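 Barnyardgrass, bulrush and ducksalad were co-sown in alluvial soil flooded to 4 cm and grown in a greenhouse at 25 to 30° C. At the 1- or 2-leaf stage, water-diluted emulsifiable concentrates went onto the water surface at set doses (g/a). Herbicidal effect was scored three weeks later on a graded scale.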"}, "[6]": {"tested_on": "bulrush", "experiment": "Test Example 2: herbicidal effects during the vegetation period under submerged conditions", "settings": "treatment during the vegetation period under submerged conditions; dose 2.52 g/a", "summary_of_the_method": "as §2"}, "[7]": {"tested_on": "ducksalad", "experiment": "Test Example 2: herbicidal effects during the vegetation period under submerged conditions", "settings": "treatment during the vegetation period under submerged conditions; dose 2.52 g/a", "summary_of_the_method": "as §2"}, "[8]": {"tested_on": "Italian ryegrass", "experiment": "Test Example 3: herbicidal effects in soil treatment", "settings": "dose 3.2 g/a", "summary_of_the_method": "(§3)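 Seeds were sown in sterilized diluvial soil and covered with about 1.5 cm of soil. Compounds, formulated as emulsifiable concentrates and diluted with water, were sprayed evenly over the soil surface at set doses in g/a. Herbicidal effect was scored on a rating scale three weeks later.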"}, "[9]": {"tested_on": "barnyardgrass", "experiment": "Test Example 3: herbicidal effects in soil treatment", "settings": "dose 3.2 g/a", "summary_of_the_method": "as §3"}, "[10]": {"tested_on": "common chickweed", "experiment": "Test Example 3: herbicidal effects in soil treatment", "settings": "dose 3.2 g/a", "summary_of_the_method": "as §3"}, "[11]": {"tested_on": "common lambsquater", "experiment": "Test Example 3: herbicidal effects in soil treatment", "settings": "dose 3.2 g/a", "summary_of_the_method": "as §3"}, "[12]": {"tested_on": "common ragweed", "experiment": "Test Example 3: herbicidal effects in soil treatment", "settings": "dose 3.2 g/a", "summary_of_the_method": "as §3"}, "[13]": {"tested_on": "giant foxtail", "experiment": "Test Example 3: herbicidal effects in soil treatment", "settings": "dose 3.2 g/a", "summary_of_the_method": "as §3"}, "[14]": {"tested_on": "large crabgrass", "experiment": "Test Example 3: herbicidal effects in soil treatment", "settings": "dose 3.2 g/a", "summary_of_the_method": "as §3"}, "[15]": {"tested_on": "posumbu knotweed", "experiment": "Test Example 3: herbicidal effects in soil treatment", "settings": "dose 3.2 g/a", "summary_of_the_method": "as §3"}, "[16]": {"tested_on": "redroot pigweed", "experiment": "Test Example 3: herbicidal effects in soil treatment", "settings": "dose 3.2 g/a", "summary_of_the_method": "as §3"}, "[17]": {"tested_on": "velvetleaf", "experiment": "Test Example 3: herbicidal effects in soil treatment", "settings": "dose 3.2 g/a", "summary_of_the_method": "as §3"}, "[18]": {"tested_on": "water foxtail", "experiment": "Test Example 3: herbicidal effects in soil treatment", "settings": "dose 3.2 g/a", "summary_of_the_method": "as §3"}, "[19]": {"tested_on": "Italian ryegrass", "experiment": "Test Example 4: herbicidal effect in foliage treatment", "settings": "dose 3.2 g/a, three weeks after application", "summary_of_the_method": "(§4)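 Seeds sown in sterilized diluvial soil under ~1.5 cm soil cover and grown 14 days in a greenhouse at 25 to 30° C. Emulsifiable concentrates diluted with water were then sprayed uniformly on foliage at predetermined doses (g/a). Herbicidal effect was scored three weeks after application on a graded evaluation scale.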"}, "[20]": {"tested_on": "barnyardgrass", "experiment": "Test Example 4: herbicidal effect in foliage treatment", "settings": "dose 3.2 g/a, three weeks after application", "summary_of_the_method": "as §4"}, "[21]": {"tested_on": "common chickweed", "experiment": "Test Example 4: herbicidal effect in foliage treatment", "settings": "dose 3.2 g/a, three weeks after application", "summary_of_the_method": "as §4"}, "[22]": {"tested_on": "common lambsquater", "experiment": "Test Example 4: herbicidal effect in foliage treatment", "settings": "dose 3.2 g/a, three weeks after application", "summary_of_the_method": "as §4"}, "[23]": {"tested_on": "common ragweed", "experiment": "Test Example 4: herbicidal effect in foliage treatment", "settings": "dose 3.2 g/a, three weeks after application", "summary_of_the_method": "as §4"}, "[24]": {"tested_on": "giant foxtail", "experiment": "Test Example 4: herbicidal effect in foliage treatment", "settings": "dose 3.2 g/a, three weeks after application", "summary_of_the_method": "as §4"}, "[25]": {"tested_on": "large crabgrass", "experiment": "Test Example 4: herbicidal effect in foliage treatment", "settings": "dose 3.2 g/a, three weeks after application", "summary_of_the_method": "as §4"}, "[26]": {"tested_on": "posumbu knotweed", "experiment": "Test Example 4: herbicidal effect in foliage treatment", "settings": "dose 3.2 g/a, three weeks after application", "summary_of_the_method": "as §4"}, "[27]": {"tested_on": "redroot pigweed", "experiment": "Test Example 4: herbicidal effect in foliage treatment", "settings": "dose 3.2 g/a, three weeks after application", "summary_of_the_method": "as §4"}, "[28]": {"tested_on": "velvetleaf", "experiment": "Test Example 4: herbicidal effect in foliage treatment", "settings": "dose 3.2 g/a, three weeks after application", "summary_of_the_method": "as §4"}, "[29]": {"tested_on": "water foxtail", "experiment": "Test Example 4: herbicidal effect in foliage treatment", "settings": "dose 3.2 g/a, three weeks after application", "summary_of_the_method": "as §4"}}}
{"smiles": "CCOC(=O)N(c1ccccc1CN1COC(C)(C2CC2)CC1=O)S(=O)(=O)C(F)(F)F", "note": "(centres unmarked) [II-45]", "values": [{"measurement": "A: barnyardgrass, herbicidal effect (evaluation scale 0-5)", "setting": "[1]", "result": "5 (mortality of 90% or above (nearly complete death))"}, {"measurement": "B: bulrush, herbicidal effect (evaluation scale 0-5)", "setting": "[2]", "result": "5 (mortality of 90% or above (nearly complete death))"}, {"measurement": "C: ducksalad, herbicidal effect (evaluation scale 0-5)", "setting": "[3]", "result": "5 (mortality of 90% or above (nearly complete death))"}, {"measurement": "a: transplanted rice, effect on crop (evaluation scale 0-5)", "setting": "[4]", "result": "0 (mortality of less than 5% (almost ineffective))"}, {"measurement": "A: barnyardgrass, herbicidal effect (evaluation scale 0-5)", "setting": "[5]", "result": "5 (mortality of 90% or above (nearly complete death))"}, {"measurement": "B: bulrush, herbicidal effect (evaluation scale 0-5)", "setting": "[6]", "result": "5 (mortality of 90% or above (nearly complete death))"}, {"measurement": "C: ducksalad, herbicidal effect (evaluation scale 0-5)", "setting": "[7]", "result": "5 (mortality of 90% or above (nearly complete death))"}, {"measurement": "H: Italian ryegrass, herbicidal effect (evaluation scale 0-5)", "setting": "[8]", "result": "4 (mortality of at least 70% and less than 90%)"}, {"measurement": "A: barnyardgrass, herbicidal effect (evaluation scale 0-5)", "setting": "[9]", "result": "5 (mortality of 90% or above (nearly complete death))"}, {"measurement": "N: common chickweed, herbicidal effect (evaluation scale 0-5)", "setting": "[10]", "result": "3 (mortality of at least 40% and less than 70%)"}, {"measurement": "L: common lambsquater, herbicidal effect (evaluation scale 0-5)", "setting": "[11]", "result": "0 (mortality of less than 5% (almost ineffective))"}, {"measurement": "J: common ragweed, herbicidal effect (evaluation scale 0-5)", "setting": "[12]", "result": "4 (mortality of at least 70% and less than 90%)"}, {"measurement": "E: giant foxtail, herbicidal effect (evaluation scale 0-5)", "setting": "[13]", "result": "4 (mortality of at least 70% and less than 90%)"}, {"measurement": "D: large crabgrass, herbicidal effect (evaluation scale 0-5)", "setting": "[14]", "result": "4 (mortality of at least 70% and less than 90%)"}, {"measurement": "M: posumbu knotweed, herbicidal effect (evaluation scale 0-5)", "setting": "[15]", "result": "4 (mortality of at least 70% and less than 90%)"}, {"measurement": "K: redroot pigweed, herbicidal effect (evaluation scale 0-5)", "setting": "[16]", "result": "0 (mortality of less than 5% (almost ineffective))"}, {"measurement": "I: velvetleaf, herbicidal effect (evaluation scale 0-5)", "setting": "[17]", "result": "0 (mortality of less than 5% (almost ineffective))"}, {"measurement": "G: water foxtail, herbicidal effect (evaluation scale 0-5)", "setting": "[18]", "result": "5 (mortality of 90% or above (nearly complete death))"}, {"measurement": "H: Italian ryegrass, herbicidal effect", "setting": "[19]", "result": "4 (mortality of at least 70% and less than 90%)"}, {"measurement": "A: barnyardgrass, herbicidal effect", "setting": "[20]", "result": "4 (mortality of at least 70% and less than 90%)"}, {"measurement": "N: common chickweed, herbicidal effect", "setting": "[21]", "result": "3 (mortality of at least 40% and less than 70%)"}, {"measurement": "L: common lambsquater, herbicidal effect", "setting": "[22]", "result": "3 (mortality of at least 40% and less than 70%)"}, {"measurement": "J: common ragweed, herbicidal effect", "setting": "[23]", "result": "3 (mortality of at least 40% and less than 70%)"}, {"measurement": "E: giant foxtail, herbicidal effect", "setting": "[24]", "result": "2 (mortality of at least 20% and less than 40%)"}, {"measurement": "D: large crabgrass, herbicidal effect", "setting": "[25]", "result": "3 (mortality of at least 40% and less than 70%)"}, {"measurement": "M: posumbu knotweed, herbicidal effect", "setting": "[26]", "result": "3 (mortality of at least 40% and less than 70%)"}, {"measurement": "K: redroot pigweed, herbicidal effect", "setting": "[27]", "result": "0 (mortality of less than 5% (almost ineffective))"}, {"measurement": "I: velvetleaf, herbicidal effect", "setting": "[28]", "result": "2 (mortality of at least 20% and less than 40%)"}, {"measurement": "G: water foxtail, herbicidal effect", "setting": "[29]", "result": "4 (mortality of at least 70% and less than 90%)"}]}
